Values of other authors as cited in patent publication US12394803B2, “Production method of catalyst, catalyst, production method of composition, composition, electrode, manufacturing method of electrode, fuel cell, metal-air battery” (Azul Energy Inc., priority 2019, dated 2025).

Settings: background statement on Patent Document 1

Solubility in 2-propanol: low solubility
SMILES: [Fe+2].c1ccc2c(c1)-c1nc-2nc2[n-]c(nc3nc(nc4[n-]c(n1)c1ccccc41)-c1ccccc1-3)c1ccccc21 [Iron phthalocyanines, Iron phthalocyanine]
